Source: US12667098B2, “Ready to use plant treatment agent applicator, container and product” (UPL Corporation Limited, priority 2022, dated 2026)

Columns and labels:
Type in all cases: in vivo
Settings in all cases: 3 L/ha of glufosinate ammonium 18.5%
[1] = tested on: Water foxtail; experiment: Weed control efficacy of glufosinate applied with the applicator: water foxtail
Source text: (§1) The rate of application was 3 L/ha of glufosinate ammonium 18.5%.

[2] = tested on: Broadleaf dock; experiment: Weed control efficacy of glufosinate applied with the applicator: broadleaf dock
Source text: as §1

[3] = tested on: Barnyard grass; experiment: Weed control efficacy of glufosinate applied with the applicator: barnyard grass
Source text: as §1

[4] = tested on: Crabgrass; experiment: Weed control efficacy of glufosinate applied with the applicator: crabgrass
Source text: as §1

[5] = tested on: Field horsetail; experiment: Weed control efficacy of glufosinate applied with the applicator: field horsetail
Source text: as §1

[6] = 0.36% applied at 15 ml/m^2, applicator of the disclosure
[7] = 0.56% applied at 10 ml/m^2, applicator of the disclosure

In the case of `CP(=O)(O)CCC(N)C(=O)O` (racemic) [glufosinate, glufosinate ammonium], the “Control %: Max weed efficacy” value [1, 6] is reported as 96%, the “Control %: Max weed efficacy” value [1, 7] is reported as 92% and the “Control %: Max weed efficacy” value [2, 6] is reported as 92%. For the same compound, the “Control %: Max weed efficacy” value [2, 7] was 99%, the “Control %: Max weed efficacy” value [3, 6] was 59% and the “Control %: Max weed efficacy” value [3, 7] was 55%. For the same compound, the “Control %: Max weed efficacy” value [4, 6] was 82%, the “Control %: Max weed efficacy” value [4, 7] was 81% and the “Control %: Max weed efficacy” value [5, 6] was 76%. For the same compound, the “Control %: Max weed efficacy” value [5, 7] was 73%.
